# From patent publication US20240270701A1, “BETA ADRENERGIC AGONIST AND METHODS OF USING THE SAME” (Curasen Therapeutics, Inc., priority 2021, published 2024)
# Like-named read-outs stand apart in the source and are kept apart here.
# Key:
# B1-AR = target: T1, B1-AR (Homo sapiens, UniProt P08588); assay: cAMP Gs dynamic HTRF assay, cells expressing beta-adrenergic receptor (CHO-K1), B1-AR; type: cell-based; details: for EC50: read-out: pEC50 [B1-AR] (converted); for Emax: read-out: Emax (% iso) (%) [B1-AR]
# T1 construct: expressed in transfected cells; host or cells: CHO-K1
# Procedure: (§1) cAMP homogeneous time-resolved fluorescence (HTRF): experimental methods. Compound efficacy is determined using the cAMP Gs dynamic HTRF assay (Cisbio, catalog #62AM4PEC) largely following the manufacturer's instructions, also detailed below.
# (§2) Standard serial dilution curves are 10-point, 5-fold dilutions starting from a highest concentration of 10 μM. Controls present on every assay plate are 0.1% DMSO (vehicle control), 1 μM isoproterenol (full beta-adrenergic agonist control) and […] xamoterol (partial beta-adrenergic agonist control). […] Assay plates are centrifuged at 500×g for 10 seconds. Compounds and IBMX are prepared at 2× final dose to compensate for addition of cells.
# (§3) Cell preparation: 1× stimulation buffer, washing PBS (Dulbecco's phosphate-buffered saline, − Mg − Ca; Caisson Labs, catalog #PBL01), assay PBS (Dulbecco's phosphate-buffered saline, + Mg, + Ca; Caisson Labs, catalog #PBL02) and Versene (0.02% EDTA disodium salt solution in PBS without calcium or magnesium; Caisson Labs, catalog #EDL01) are pre-warmed to 37° C. Cells expressing beta-adrenergic receptor were washed in washing PBS to remove growth medium and then released from the surface by incubating with Versene for 5-10 minutes at 37° C. Cells are harvested using assay PBS, counted manually by hemocytometer or by an automated cell counter, pelleted by centrifugation (200×g, 5 minutes) and resuspended in 37° C. 1× stimulation buffer to a final density of 1.5×10^6 cells/mL. 5 μL of the suspended cell solution (7500 cell total) are added to all wells of the 384 well assay plate, the assay plate was covered with an Axygen® plate seal (Corning PCR-SP) and incubated in a humidified 37° C. environment supplemented with 5% CO2 for 30 minutes.
# (§4) HTRF reagent addition, reading and data analysis: After 30 minutes of cell stimulation with test compound, the assay plates are centrifuged at 500×g for 10 seconds, and incubation was stopped with the addition of 5 μL cAMP-D2 acceptor, diluted 1:21 in detection and lysis buffer 2 (Cisbio 62CL2FDF) was added to all cells. Subsequently, 5 μL Anti-cAMP-Eu Donor, diluted 1:21 in detection and lysis buffer 2, was added to cells. Plates were sealed and reactions gently ‘vortexed’ at 900 rpm on a Heidolph Titramax 1000 for at least 30 minutes at room temperature. Plates are centrifuged again at 500×g for 10 seconds, and HTRF was measured using a Tecan Spark plate reader at 50 flashes per well. […] Potency estimates (EC50 and pEC50) are derived from the four-parameter nonlinear regression of the concentration-effect curve and an estimate of relative efficacy is determined by comparing the magnitude of the test compound HTRF signal window (min−max dose) with the signal window of the full agonist control, isoproterenol.
# B2-AR = target: T2, B2-AR (Homo sapiens, UniProt P07550); assay: cAMP Gs dynamic HTRF assay, cells expressing beta-adrenergic receptor (CHO-K1), B2-AR; type: cell-based; details: for Emax: read-out: Emax (% iso) (%) [B2-AR]; for EC50: read-out: pEC50 [B2-AR] (converted)
# T2 construct: expressed in transfected cells; host or cells: CHO-K1
# Procedure: as §1, §2, §3, §4
# [1] = relative to full agonist isoproterenol
# [2] = CHO-K1, CHO-K1 cells, relative to full agonist isoproterenol
# [3] = CHO-K1 cells, relative to full agonist isoproterenol
# T1 sequence (P08588 whole entry, species assumed): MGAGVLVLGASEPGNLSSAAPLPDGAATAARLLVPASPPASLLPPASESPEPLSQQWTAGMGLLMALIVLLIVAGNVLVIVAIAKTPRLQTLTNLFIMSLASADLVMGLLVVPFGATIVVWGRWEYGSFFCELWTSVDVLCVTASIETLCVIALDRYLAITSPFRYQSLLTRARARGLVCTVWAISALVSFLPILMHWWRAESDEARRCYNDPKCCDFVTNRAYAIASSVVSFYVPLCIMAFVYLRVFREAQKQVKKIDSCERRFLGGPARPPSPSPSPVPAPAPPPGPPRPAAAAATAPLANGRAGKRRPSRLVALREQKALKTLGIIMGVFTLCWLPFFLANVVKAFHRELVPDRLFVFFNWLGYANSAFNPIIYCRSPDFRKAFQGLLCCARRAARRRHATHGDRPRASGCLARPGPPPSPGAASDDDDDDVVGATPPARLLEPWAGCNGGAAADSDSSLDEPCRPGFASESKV
# T2 sequence (P07550 whole entry, species assumed): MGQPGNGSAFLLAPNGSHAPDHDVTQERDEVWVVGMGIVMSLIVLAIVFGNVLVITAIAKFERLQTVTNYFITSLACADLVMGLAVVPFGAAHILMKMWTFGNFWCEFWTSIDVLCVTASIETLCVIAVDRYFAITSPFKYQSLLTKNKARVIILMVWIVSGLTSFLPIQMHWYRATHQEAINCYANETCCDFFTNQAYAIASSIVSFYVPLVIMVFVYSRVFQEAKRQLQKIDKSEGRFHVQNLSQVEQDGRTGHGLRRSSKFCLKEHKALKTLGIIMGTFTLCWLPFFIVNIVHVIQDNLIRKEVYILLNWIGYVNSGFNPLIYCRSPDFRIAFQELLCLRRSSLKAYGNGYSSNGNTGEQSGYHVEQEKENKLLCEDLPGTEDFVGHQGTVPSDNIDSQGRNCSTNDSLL
Structure (SMILES),EC50 (B1-AR; cAMP HTRF),Emax (B1-AR; [1]),Emax (B2-AR; [2]),"EC50 (B2-AR; CHO-K1 cells, cAMP HTRF)",Emax (B2-AR; [3]),pEC50 [B1-AR] (B1-AR; cAMP HTRF),Emax (% iso) (%) [B1-AR] (B1-AR; [1]),"pEC50 [B2-AR] (B2-AR; CHO-K1 cells, cAMP HTRF)",Emax (% iso) (%) [B2-AR] (B2-AR; [3])
CCC(C)(C)NC[C@H](O)c1cc(C#N)cc2[nH]ncc12 [I-52],100 to 1000 nM,70 to 90%,> 90%,10 to 100 nM,–,–,–,–,–
CCC(C)(C)NC[C@H](O)c1cncc2[nH]ncc12 [I-53],100 to 1000 nM,70 to 90%,–,10 to 100 nM,70 to 90%,–,–,–,–
CCC(C)(C)NC[C@H](O)c1cccc2[nH]nc(C)c12 [I-54],100 to 1000 nM,70 to 90%,–,10 to 100 nM,70 to 90%,–,–,–,–
Cn1nc(F)c2c([C@@H](O)CNC(C)(C)C)cccc21 [I-55],< 10 nM,70 to 90%,–,< 10 nM,50 to 70%,–,–,–,–
Cn1ncc2c([C@@H](O)CNC(C)(C)C)ccc(F)c21 [I-56],10 to 100 nM,50 to 70%,–,< 10 nM,50 to 70%,–,–,–,–
Cn1ncc2c([C@@H](O)CNC(C)(C)C)cc(F)cc21 [I-57],10 to 100 nM,70 to 90%,50 to 70%,< 10 nM,–,–,–,–,–
CC(C)(C)NC[C@H](O)c1cc(F)c(Cl)c2[nH]ncc12 [I-58],< 10 nM,70 to 90%,70 to 90%,< 10 nM,–,–,–,–,–
COc1cc([C@@H](O)CNC(C)(C)C)c2cn[nH]c2c1F [I-59],100 to 1000 nM,< 50%,< 50%,10 to 100 nM,–,–,–,–,–
Cc1ccc([C@@H](O)CNC(C)(C)C)c2c(F)n[nH]c12 [I-60],< 10 nM,70 to 90%,70 to 90%,< 10 nM,–,–,–,–,–
Cc1n[nH]c2cc(F)cc([C@@H](O)CNC(C)(C)C)c12 [I-61],10 to 100 nM,70 to 90%,–,< 10 nM,70 to 90%,–,–,–,–
Cc1c(F)cc([C@@H](O)CNC(C)(C)C)c2cn[nH]c12 [I-62],< 10 nM,70 to 90%,–,< 10 nM,70 to 90%,–,–,–,–
CC(C)(C)CNC[C@H](O)c1cccc2c1C(F)(F)C(=O)N2 [I-63],> 1000 nM,< 50%,–,100 to 1000 nM,> 90%,–,–,–,–
Cn1ccc(CNC[C@H](O)c2cccc3[nH]ncc23)n1 [I-64],100 to 1000 nM,70 to 90%,–,100 to 1000 nM,> 90%,–,–,–,–
Cn1ccc(CNC[C@H](O)c2ccc(F)c3[nH]ncc23)n1 [I-65],100 to 1000 nM,50 to 70%,–,100 to 1000 nM,70 to 90%,–,–,–,–
CC(C)(C)NC[C@@H](O)c1cncc2[nH]ncc12 [I-66],> 1000 nM,70 to 90%,> 90%,100 to 1000 nM,–,–,–,–,–
Cc1cc([C@@H](O)CNC(C)(C)C)c2cn[nH]c2n1 [I-67],10 to 100 nM,> 90%,> 90%,< 10 nM,–,–,–,–,–
CC(C)(C)CNC[C@H](O)c1ccc(Cl)c2[nH]ncc12 [I-68],10 to 100 nM,70 to 90%,–,< 10 nM,70 to 90%,–,–,–,–
CC(C)(C)CNC[C@H](O)c1cc(C#N)cc2[nH]ncc12 [I-69],> 1000 nM,50 to 70%,70 to 90%,100 to 1000 nM,–,–,–,–,–

Structure (SMILES),EC50 (B1-AR; cAMP HTRF),Emax (B1-AR; [1]),Emax (B2-AR; [2]),"EC50 (B2-AR; CHO-K1 cells, cAMP HTRF)",Emax (B2-AR; [3]),pEC50 [B1-AR] (B1-AR; cAMP HTRF),Emax (% iso) (%) [B1-AR] (B1-AR; [1]),"pEC50 [B2-AR] (B2-AR; CHO-K1 cells, cAMP HTRF)",Emax (% iso) (%) [B2-AR] (B2-AR; [3])
CNc1ncc([C@@H](O)CNC(C)(C)C)cn1 [I-70],100 to 1000 nM,70 to 90%,–,10 to 100 nM,50 to 70%,–,–,–,–
Cc1cc([C@@H](O)CNC(C)(C)C)cc2cccnc12 [I-71],100 to 1000 nM,50 to 70%,–,10 to 100 nM,< 50%,–,–,–,–
Cc1ccnc2ccc([C@@H](O)CNC(C)(C)C)cc12 [I-72],100 to 1000 nM,50 to 70%,< 50%,10 to 100 nM,–,–,–,–,–
Cc1cnc2ccc([C@@H](O)CNC(C)(C)C)cc2c1 [I-73],> 1000 nM,< 50%,–,100 to 1000 nM,< 50%,–,–,–,–
COc1ccnc2ccc([C@@H](O)CNC(C)(C)C)cc12 [I-74],100 to 1000 nM,< 50%,< 50%,> 1000 nM,–,–,–,–,–
O[C@@H](CNCC1CC1)c1ccc(F)c2[nH]ncc12 [I-75],< 10 nM,70 to 90%,> 90%,< 10 nM,–,–,–,–,–
O[C@@H](CNCC1CC1)c1cccc2[nH]ncc12 [I-76],< 10 nM,70 to 90%,–,< 10 nM,> 90%,–,–,–,–
CC(C)(C)NC[C@H](O)c1ccc2ncncc2c1 [I-77],> 1000 nM,50 to 70%,50 to 70%,100 to 1000 nM,–,–,–,–,–
Cn1ccc(CNC[C@H](O)c2cccc3[nH]nc(F)c23)n1 [I-78],100 to 1000 nM,70 to 90%,–,100 to 1000 nM,> 90%,–,–,–,–
Cc1cc2ncccc2cc1[C@@H](O)CNC(C)(C)C [I-79],> 1000 nM,> 90%,–,100 to 1000 nM,< 50%,–,–,–,–
CC(C)(C)NC[C@H](O)c1cc2cccnc2cc1Cl [I-80],100 to 1000 nM,70 to 90%,< 50%,10 to 100 nM,–,–,–,–,–
CC1(CNC[C@H](O)c2ccc(F)c3[nH]ncc23)CC1 [I-81],10 to 100 nM,70 to 90%,–,< 10 nM,> 90%,–,–,–,–
Cc1ccc2cc([C@@H](O)CNC(C)(C)C)ccc2n1 [I-82],> 1000 nM,< 50%,–,> 1000 nM,< 50%,–,–,–,–
CC(C)(C)NC[C@H](O)c1ccc2nccnc2c1 [I-83],10 to 100 nM,70 to 90%,–,10 to 100 nM,50 to 70%,–,–,–,–
Cn1ncc2c([C@@H](O)CNC(C)(C)C)cc(F)cc21 [I-84],–,–,–,–,–,B (B=>7-8),B (B=>70-90%),A (A=>8),B (B=>70-90%)
CC(C)(C)NC[C@H](O)c1cccc2c(F)n[nH]c12 [I-85],100 to 1000 nM,70 to 90%,50 to 70%,100 to 1000 nM,–,–,–,–,–
CC(C)(C)NC[C@H](O)c1cnc(N)s1 [I-86],> 1000 nM,70 to 90%,70 to 90%,100 to 1000 nM,–,–,–,–,–
CC(C)(C)CNC[C@H](O)c1ccc(F)c2[nH]ncc12 [I-87],100 to 1000 nM,50 to 70%,–,10 to 100 nM,70 to 90%,–,–,–,–
